Experimental data from patent publication US20210137950A1, “Pharmaceutical Composition for Treating Cerebral Infarction” (Kyoto University, priority 2018, published 2021).

How the values were obtained:
[1] = tested on: primary cortical neurons; experiment: Cell viability test (CCK-8) after oxygen-glucose deprivation (OGD); format: cell-based, rat; conditions: for neuronal viability after OGD: 2 hours OGD + 22 hours recovery, vehicle (DMSO) 18.1±1.9%, p<0.001, mean±SE
Experimental: (§1) Cortical neuronal cultures were prepared from 17-day-old Sprague Dawley rat embryos (Shimizu Laboratory Supplies) using methods described earlier (Maki T, et al, Annals of Clinical and Translational Neurology, 2014 August; 1(8):519-33). Briefly, cortices were dissected and dissociated. Cells were plated on dishes coated with poly-D-lysine in Dulbecco's modified Eagle's medium (DMEM) containing 5% heat-inactivated fetal bovine serum and 1% penicillin/streptomycin at a density of 200,000-250,000 cells/cm^2. At 24-hour after seeding, the medium was changed to Neurobasal (NB) medium containing 0.5 mM glutamine, 1% penicillin/streptomycin and 2% B27 supplement. Cultured neurons were used for experiments 14 days after seeding.
(§2) The medium was replaced with DMEM with no glucose. Then, the cells were placed into the sealed Anaero container with an Anaero Pack (Mitsubishi Gas Chemical Company) for 1.5-2 hours. Following oxygen glucose deprivation, cells were switched to the normal medium and returned to a normoxic 5% CO2 incubator.
Cell viability was assessed by Cell Counting Kit-8 (CCK-8) assay (Dojindo Laboratories). The CCK-8 assay is based on the conversion of a water-soluble tetrazolium salt, 2-(2-methoxy-4-nitrophenyl)-3-(4-nitrophenyl)-5-(2,4-disulfophenyl)-2H-tetrazolium, monosodium salt (WST-8), to a water-soluble formazan dye upon reduction by dehydrogenases in the presence of an electron carrier. The cells were incubated with 10% CCK-8 solution for 1-2 hour at 37° C. Then the absorbance of the culture medium was measured with a microplate reader at a test wavelength of 450 nm and a reference wavelength of 630 nm.
To assess protective effects of KUS121 on neurons in ischemic conditions, cell viability tests were performed after oxygen-glucose deprivation (OGD) in both the presence and the absence of KUS121 (FIG. 1, top). OGD was performed in rat cortical primary neuronal cultures for 2 hours with subsequent recovery at 21% 02 and glucose-containing media for further 22 hours. Control neurons were kept at 21% 02 in glucose-containing media for 24 hours. […]

[2] = tested on: primary cortical neurons; experiment: MAP2 immunocytochemistry after OGD; format: cell-based, rat; conditions: 100 μM KUS, vehicle (DMSO) 0.87±0.13%, p<0.05, mean±SE
Experimental: as §1, §2
The cells were washed twice with phosphate buffered saline (PBS), followed by 4% paraformaldehyde (PFA) for 15 minutes. After being further washed twice with PBS, they were incubated with PBS/0.1% Tween (10 min) and blocked with 3% BSA/PBS (1 hour at room temperature). […]

[3] = tested on: primary cortical neurons; experiment: ATP assay (luciferase-based) after OGD; format: cell-based, rat
Experimental: as §1
The medium was replaced with DMEM with no glucose. Then, the cells were placed into the sealed Anaero container with an Anaero Pack (Mitsubishi Gas Chemical Company) for 1.5-2 hours. […]
ATP levels in cell lysates were measured with luciferase chemiluminescence-based ATP assay reagent for cells (Toyo Ink) in accordance with the manufacturer's protocol. […] After incubating for 5 minutes at room temperature, luminescence of an aliquot of the solution was measured in a luminometer.
Cellular ATP levels were measured by the luciferase-based assay after 1.5 hour OGD. […]

[4] = tested on: C/EBP-homologous protein (CHOP); experiment: Western blot of CHOP expression after tunicamycin treatment (ER stress); format: cell-based, rat; conditions: 0.25 μg/mL tunicamycin for 6 hours
Experimental: as §1
(§3) Cells were collected and lysed in RIPA buffer (20 mM HEPES-KOH pH 7.4, 150 mM NaCl, 2 mM EDTA, 1% Nonidet-P40, 1% sodium deoxycholate) containing 10% 2-mercaptoethanol (Nacalai tesque) and 1% protease inhibitor (Nacalai tesque). Dissected brain samples were homogenized in the RIPA buffer with 2-mercaptomethanol and protease inhibitor. Samples were sonicated and centrifuged at 4° C., 15,000 rpm for 15 minutes, and the supernatants were collected. Proteins (15-20 μg per lane) were loaded, and were separated by 5-20% SDS-PAGE and transferred to polyvinylidene fluoride membranes (Millipore). […]

[5] = tested on: C57BL/6 mice; experiment: Accelerating rotarod test after transient focal cerebral ischemia (distal MCAO with hypoxia); format: in vivo; conditions: KUS121 immediately after occlusion (100 mg/kg intravenously and 50 mg/kg intraperitoneally), 24 hours after occlusion, vehicle (5% Cremophor) 134.5±18.4, p<0.05, mean±SE
Experimental: (§4) Adult male C57BL/6 (C57BL/6NJcl) and CB-17 (CB-17/lcr-+/+Jcl) mice (6-7 weeks old) were purchased from Shimizu Laboratory supplies and Clea Japan, respectively. Animals were allowed access to food and water ad libitum.
(§5) In C57BL/6 mice, distal MCAO with hypoxia was performed as previously described with some modifications (Doyle K P, Fathali N, Siddiqui M R, et al. Distal hypoxic stroke: a new mouse model of stroke with high throughput, low variability and a quantifiable functional deficit. Journal of Neuroscience Methods, 2012 May 30; 207(1):31-40). Mice were placed in a large chamber containing 10% oxygen and 90% nitrogen after the occlusion of the distal MCA by a nylon suture. After 30 minutes of hypoxia, mice were returned to normoxic condition with removal of the nylon suture. Sham surgery were identical to the stroke surgery, except for the occlusion of the distal MCA.
Twenty-four hours after ischemia, mice were placed on an accelerating rotarod apparatus, in which the speed was accelerated from 0 to 40 rpm over 4 minutes. The time for which mice can remain on the rotating cylinder was measured. Three trials were performed and the best latency to fall was used. […]

[6] = tested on: C57BL/6 mice; experiment: Infarction volume after transient focal cerebral ischemia (distal MCAO with hypoxia); format: in vivo; conditions: KUS121 immediately after occlusion (100 mg/kg intravenously and 50 mg/kg intraperitoneally), 24 hours after ischemia, vehicle (5% Cremophor) 8.8±0.63%, p<0.05, mean±SE
Experimental: as §4, §5
Mice were deeply anesthetized and perfused transcardially with PBS and 4% PFA 24 hours after ischemia. The brains were extracted and post-fixed in 4% PFA for 48 hours. They were further cryoprotected in 20% sucrose until they sunk to the bottom of the vial. […] The area of the ipsilateral hemisphere and the area of the infarct on each section were measured using NIH imageJ software. […]

[7] = tested on: CB-17 mice; experiment: Infarction volume after transient focal cerebral ischemia (distal MCAO); format: in vivo; conditions: KUS121 immediately before the ischemia, vehicle (5% Cremophor) 11.8±0.60%, p<0.05, mean±SE
Experimental: as §4
In CB-17 mice, distal middle cerebral artery occlusion (distal MCAO) was performed as previously described with minor modifications (Kasahara Y, Ihara M, Nakagomi T, et al. A highly reproducible model of cerebral ischemia/reperfusion with extended survival in CB-17 mice. Neuroscience Research, 2013 July; 76(3):163-8). In brief, general anesthesia was induced and maintained by inhalation of 4% and 1.5% isoflurane (Pfizer), respectively. Mice were placed in a lateral position, and a skin incision was made between the left eyeball and the left external auditory canal. The left salivary gland and a part of the temporalis muscle were resected to allow visualization of the middle cerebral artery (MCA) through the cranial bone. A burr hole was made in the cranial bone. […] During surgery, rectal temperature was monitored and controlled at 36.0-37.2° C. by a feedback-regulated heating pad.
Mice were deeply anesthetized and perfused transcardially with PBS and 4% PFA 24 hours after ischemia. […] The area of the ipsilateral hemisphere and the area of the infarct on each section were measured using NIH imageJ software. […]

[8] = tested on: NeuN; experiment: Western blotting of NeuN in cerebral cortex after transient focal cerebral ischemia; format: in vivo; conditions: CB-17 mice, KUS121 before ischemia
Experimental: as §3, with “(Millipore). The following primary antibodies were used: β-actin (1:5000, Sigma Aldrich, A5441), CHOP (1:1000, Cell Signaling Technology, L63F7), NeuN (1:2000, Merck Millipore, ABN78), VCP (1:500, ABGENT, AP6920b). HRP-labeled secondary antibodies (Santa Cruz Biotechnology) were used for visualization by enhanced chemiluminescence (Nacalai tesque).” for “(Millipore).”
In CB-17 mice, distal middle cerebral artery occlusion (distal MCAO) was performed as previously described with minor modifications (Kasahara Y, Ihara M, Nakagomi T, et al. A highly reproducible model of cerebral ischemia/reperfusion with extended survival in CB-17 mice. Neuroscience Research, 2013 July; 76(3):163-8). […] During surgery, rectal temperature was monitored and controlled at 36.0-37.2° C. by a feedback-regulated heating pad. […]

In the case of `Cc1cc(F)ccc1-c1ccc(N=Nc2cc(S(=O)(=O)[O-])c3ccccc3c2N)cn1.[Na+]` [KUS121, 4-amino-3-[6-(4-fluoro-2-methylphenyl)pyridine-3-ylazo]naphthalene-1-sulfonic acid sodium salt], the “neuronal viability after OGD” value ([1]; 100 μM KUS throughout) is reported as 43.5±3.1%, the “neuronal viability after OGD” value ([1]; 200 μM KUS throughout) is reported as 42.4±3.7% and the “neuronal viability without OGD” value ([1]; without OGD) is reported as “no effect”. The MAP2-positive area [2] was 2.64±0.41%, the ATP levels ([3]; 100 μM KUS, after 1.5 hour OGD, vehicle (DMSO) 14.3±1.1%, p<0.001, mean±SE) was 28.0±2.3% and the “ATP levels without OGD” value ([3]; without OGD) was “no effect”. For the same compound, the “expression of CHOP” value [4] was “suppressed”, the rotarod retention time [5] was 201.0 ± 21.8 s and the infarction volumes [6] was 4.7±1.70%. The infarction volumes [7] was 5.74±1.64% and the “expression of NeuN in cerebral cortex” value [8] was “preserved”.
